According to ChEMBL document CHEMBL1145057, “Water soluble, core-modified porphyrins. 3. Synthesis, photophysical properties, and in vitro studies of photosensitization, uptake, and localization with carboxylic acid-substituted derivatives” (J Med Chem, 2003):

test: Partition coefficient (logP); type: physicochemical; conditions: octanol/water

| Compound | logP |
| --- | --- |
| O=C(O)COc1ccc(-c2c3nc(c(-c4ccc(OCC(=O)O)cc4)c4ccc(s4)c(-c4ccc(OCC(=O)O)cc4)c4nc(c(-c5ccccc5)c5ccc2s5)C=C4)C=C3)cc1 | -1.49 |
| O=C(O)COc1ccc(-c2c3nc(c(-c4ccccc4)c4ccc(s4)c(-c4ccccc4)c4nc(c(-c5ccc(OCC(=O)O)cc5)c5ccc2s5)C=C4)C=C3)cc1 | 0.036 |
| O=C(O)COc1ccc(-c2c3nc(c(-c4ccc(OCC(=O)O)cc4)c4ccc(s4)c(-c4ccc(OCC(=O)O)cc4)c4nc(c(-c5ccc(OCC(=O)O)cc5)c5ccc2s5)C=C4)C=C3)cc1 | -0.95 |
| O=C(O)COc1ccc(-c2c3nc(c(-c4ccccc4)c4ccc(s4)c(-c4ccccc4)c4nc(c(-c5ccc(OCC(=O)O)cc5)c5ccc2[se]5)C=C4)C=C3)cc1 | -0.67 |

Continued, values first:

| logP | Compound |
| --- | --- |
| > 3.5 | O=C(O)COc1ccc(-c2c3nc(c(-c4ccccc4)c4ccc(s4)c(-c4ccccc4)c4nc(c(-c5ccccc5)c5ccc2s5)C=C4)C=C3)cc1 |
| -1.9 | O=S(=O)(O)c1ccc(-c2c3nc(c(-c4ccc(F)cc4)c4ccc(s4)c(-c4ccc(F)cc4)c4nc(c(-c5ccc(S(=O)(=O)O)cc5)c5ccc2s5)C=C4)C=C3)cc1 |
